Experimental data reported in patent US11180463B2, “Thiazole inner salt compounds, and preparation methods and uses thereof” (Institute of Pharmacology and Toxicology Academy of …, priority 2013, dated 2021).
Several values for one entry are separate records, joined by “and”; a condition that tells them apart may be missing. Identical values can stand only once. Counter-ions that a name gives are not always drawn. Like-named read-outs stand apart in the source and are kept apart here.

What was measured:
[1] = system: rats with diabetes accompanied by hypertension
Protocol: In the meantime, pure diabetes group and normal control group of the same week-age were also set. The compound of Example 2 (36 mg/kg) was dissolved in distilled water just before use, administered intragastrically, once per day, for 5 weeks.

[2] = Accelerated stability test (RT40° C., RH75%); assay type: physicochemical; details: for Weight gain (%) / Purity* (%) / Appearance and color: RT40° C., RH75%; for Accelerated test, 3 months: appearance after 3 months at 40° C., humidity 75%, three batches
Protocol: Three batches of sample (prepared according to Example 2) were taken according to the Chinese Pharmacopoeia, 2010 Edition, packaged like packaging for sale (high-density polyethylene bags were used for drug packaging), placed under conditions of RT40° C., RH75% (NaCl saturated solution) to carry out accelerated test, after 1, 2, 3, 6 months, sampled for observation of the compound of Formula I and the compound of Formula A, compared to the data of the 0th day, and the results were shown in Table 1 and Table 2.
One batches of sample as prepared according to Example 3 were taken, packaged like packaging for sale (high-density polyethylene bags were used for drug packaging), placed under conditions of RT40° C., RH75% (NaCl saturated solution), after 1, 2, 3 months, sampled and compared to the data of the 0th day, and the results were shown in Table 3.
Three batches of sample of the compound of Formula A were taken according to the Chinese Pharmacopoeia, 2010 Edition, packaged like packaging for sale (high-density polyethylene bags were used for drug packaging), placed under conditions of RT40° C., RH75% (NaCl saturated solution), after 1, 2, 3 months, sampled and compared to the data of the 0th day, and the results were shown in Table 1 and Table 4.

[3] = system: long-term diabetic rats; details: in vivo, cited from earlier work
[4] = system: RBC surface cross-linked IgG; experiment: In vitro breaking erythrocytic surface cross-linked IgG (ELISA, lytic rate); assay type: cell-based; details: RBC of 16 weeks diabetic rats, 37° C., 16-18 h
Source text: Because erythrocytic surface cross-linked IgG is a typical AGEs cross-linked structure, the determination of degree that a compound breaks erythrocytic surface cross-linked IgG is well known as a better method for evaluating the ability of the compound in breaking AGEs cross-linked structure (Bruceh. R. Wolffenbuttel, Breakers of advanced glycation end products restore large artery properties in experimental diabetes, Natl. Acad. Sci. U.S.A 1998, 95, 4630).
Method for treating blood cells: 16 weeks diabetic rats were narcotized, blood samples were got from their carotid arteries, added with heparin for anticoagulation, centrifuged at 4° C. and 1000 g for 3 min, the lower layer RBC (red blood cells) was taken; washed with 0.1 mol/L PBS (pH7.4) for 3 times, centrifuged each time at 4° C. and 1000 g for 3 min; and the lower layer RBC was used for test.
In vitro administration method: 0.1 mol/L isotonic PBS (phosphate buffer) (pH7.4) was used as negative control, each of the compounds to be tested formed solutions with different concentrations using the buffer. Into per 900 μL of solution or solvent, 100 μL RBC was added, slightly shook at 37° C. for 16-18 h; centrifuged at 1000 g, 4° C. for 3 min, the supernatant was discarded, the plate was washed with 0.1 mol/L PBS (pH7.4) for 4 times to remove residual compound; centrifuged at 1000 g, 4° C. for 3 min, the lower layer RBC was diluted in ratio of 1:100 for ELISA determination.
Procedure for determination of RBC surface cross-linked IgG content via immunoadsorption method: Multiscreen-HA 0.45 μm 96-well plate (Millipore), sealed with Superblock (300 μL/well), 37° C., 1 h; then drained under 5 mmHg of negative pressure, the whole plate was washed with PBST for 3 times, washed with 0.1M PBS (pH7.4) for twice, shaking plate each time for 1 min; added with RBC (50 μL/well) to be tested, another PBS background control well (OD0) was set; drained under negative pressure; washed with 150 μL of 0.1 mol/L PBS (pH7.4) for 4 times, shaking plate each time for 1 min. After being drained under negative pressure, the 1:500 diluted goat-anti-mouse IgG-HRP (50 μL/well) was added, stood at room temperature for 2 h, drained; washed with 0.1 mol/L PBS (pH7.4), 150 μL/well, for 3 times, shaking plate each time for 1 min; drained; added with o-phenylenediamine (OPD) substrate developing solution (100 μL/well), stood at room temperature in dark for 30 min, the reaction was terminated with 2 mol/L H2SO4 (100 μL/well); the reaction solution (150 μL/well) was sucked out quickly and transferred to a normal 96-well ELISA plate, and OD values were determined under 490 nm.
Calculation of Lytic Rates of the Compounds to be Tested: […]

[5] = system: rats with diabetes accompanied by hypertension; experiment: 24 h urine volume/water intake in rats with diabetes accompanied by hypertension; assay type: in vivo; details: 3rd week
Protocol: In the third week of administration, the rats of each group were solely placed and fed in metabolism cage, and the water intake and urine volume within 24 hours on the 19th, 20th and 21st day were recorded.
In the 3rd week of administering the compound of Example 2, Vurine/Vwater-intake values of rats in 24 hours were calculated.

[6] = system: rats with diabetes accompanied by hypertension; experiment: Blood pressure monitoring, compound of Example 2 alone (Example 7); assay type: in vivo; details: after 4 weeks
[7] = 36 mg/kg intragastrically once per day, Mean ± SD, n = 12
[8] = no significant change vs. model

Compound: Cc1csc[n+]1CC(=O)[O-] (as salt: salt) [Example 2]
- melting point: 169 °C

Compound: COC(=O)C1=C(C)NC(C)=C(C(=O)OC)C1c1ccccc1[N+](=O)[O-] [Nifedipine]
- systolic pressure variable coefficient (CV) ([1]; after administration for 1-5 h): 0.047±0.017
- ejection time (ET) ([1]; after administration for 20 min): 71.8 ± 4.2 ms
- average systolic pressure ([1]; after administration for 1 h): 155.2±14.9 mmHg
- pressure drop ΔSBP ([1]; after administration for 1.5 h): 25.3±9.3 mmHg
- average pulse-pressure difference (PH) ([1]; after administration for 5 h): 48.1±5.1 mmHg
- average systolic pressure ([1]; after administration for 5 h): 166.0±15.0 mmHg
- ejection time (ET) ([1]; after administration for 5 h): 81.1 ± 5.0 ms
- pressure drop ΔSBP ([1]; after administration for 5 h): 15.9±9.3 mmHg
- average pulse-pressure difference (PH) ([1]; after administration for 10 h): 48.7±5.2 mmHg
- average systolic pressure ([1]; after administration for 10 h): 179.0±14.1 mmHg
- pressure drop ΔSBP ([1]; after administration for 10 h): 1.19±3.5 mmHg
- time after administration at which the systolic pressure started to rise ([1]; rat, in vivo): 2 h
- time after which pulse-pressure difference (PH) started to rise ([1]; rat, in vivo): 1 h
- time at which ET recovered the level before administration ([1]; rat, in vivo): 5 h

Compound: Cc1csc[n+]1CC(=O)O.[Na+] [Formula A, 3-carboxymethyl-4metyl-bromothiazolium sodium salt, reference compound]
- Weight gain (%) ([2]; 0th month): 0%
- Purity* (%) ([2]; 0th month, sodium salt): 98.8% and 99.1% and 98.7%
- Appearance and color ([2]; 1st month): brown, tacky
- Purity* (%) ([2]; 1st month, sodium salt): 85.1% and 82.7% and 81.6%
- Weight gain (%) ([2]; 1st month, sodium salt): 18.0% and 18.5% and 19.0%
- Appearance and color ([2]; 2nd month): dark brown,
- Purity* (%) ([2]; 2nd month, sodium salt): 60.6% and 59.8% and 60.3%
- Weight gain (%) ([2]; 2nd month, sodium salt): 32.6% and 33.6% and 33.8%
- Appearance and color ([2]; 3rd month): dark brown,
- Purity* (%) ([2]; 3rd month, sodium salt): 51.2% and 48.5% and 54.6%
- Weight gain (%) ([2]; 3rd month, sodium salt): 41.5% and 42.1% and 44.0%
- Accelerated test, 3 months ([2]; listed as drawing 8, sodium salt): caking, appearance changing into dark brown caking, appearance changing into dark brown caking, appearance changing into dark brown
- Accelerated test, 3 months ([2]; sodium salt): easy to absorb moisture, agglomerate and change color
- AGEs fluorescence contents of aorta, myocardium of left ventricle and kidney ([3]; long-term diabetic rats): significantly reduce
- aorta compliance of diabetic rats ([3]; rat): improved
- cardiac output ([3]; rat): increased
- left ventricular function ([3]; rat): significantly improved

Compound: 3-methylcarbonyloxy-4-methyl-thiazole inner salt monohydrate [Example 3]
- Purity* (%) ([2]; 0th month): 99.9%
- Weight gain (%) ([2]; 0th month): 0%
- Purity* (%) ([2]; 1st month): 99.8%
- Weight gain (%) ([2]; 1st month): 0.04%
- Purity* (%) ([2]; 2nd month): 99.7%
- Weight gain (%) ([2]; 2nd month): 0.06%
- Purity* (%) ([2]; 3rd month): 99.7%
- Weight gain (%) ([2]; 3rd month): 0.07%

Compound: Cc1csc[n+]1CC(=O)[O-] [Example 2]
- Purity* (%) ([2]; 0th month): 100.0% and 99.6% and 99.8%
- Weight gain (%) ([2]; 0th month): 0%
- Purity* (%) ([2]; 1st month): 99.7% and 99.8%
- Weight gain (%) ([2]; 1st month): 0.11% and 0.12%
- Purity* (%) ([2]; 2nd month): 99.6% and 99.2%
- Weight gain (%) ([2]; 2nd month): 0.12% and 0.13%
- Purity* (%) ([2]; 3rd month): 99.8% and 99.3%
- Weight gain (%) ([2]; 3rd month): 0.15% and 0.14% and 0.13%
- Purity* (%) ([2]; 6th month): 99.9% and 99.6% and 99.8%
- Weight gain (%) ([2]; 6th month): 0.18% and 0.15%
- Accelerated test, 3 months [2]: no obvious appearance change no obvious appearance change no obvious appearance change
- Lytic rate (decrease of OD value, %) ([4]; 1 μM): 27.1 ± 2.2%
- Lytic rate (decrease of OD value, %) ([4]; 10 μM): 27.5 ± 2.9%
- Lytic rate (decrease of OD value, %) ([4]; 30 μM): 23.2 ± 5.1%
- Lytic rate (decrease of OD value, %) ([4]; 100 μM): 27.9 ± 3.0%
- Vurine [5, 7]: 318.3 ± 106.0 mL
- Vwater-intake [5, 7]: 375.0 ± 123.6 mL
- Vurine/Vwater-intake ([5]; 36 mg/kg, P < 0.01 vs. model): 0.86 ± 0.05
- Vurine/bodyweight ([5]; first line so headed (r8), 36 mg/kg): 0.88 ± 0.31 mL/g
- Vurine/bodyweight ([5]; second line so headed (r9), 36 mg/kg): 1.03 ± 0.34 mL/g
- systolic pressure variable coefficient (CV) during time period 10:00-20:00 ([6]; in comparison with the model group, P<0.01): significantly decrease
- average heart rate during time period 10:00-20:00 [6, 8]: 255±17 beats/min
- average pulse-pressure difference during time period 10:00-20:00 [6, 8]: 46.5±5.7 mmHg
